From paper PMC6197744, “Triazolo[4,5-d]pyrimidines as Validated General Control Nonderepressible 2 (GCN2) Protein Kinase Inhibitors Reduce Growth of Leukemia Cells” (Computational and Structural Biotechnology Journal, 2018)

Columns and labels:
Assay in all cases: NCI-60 one-dose screen
Format in all cases: cell-based
SF-295 = details: Homo sapiens; CNS SF-295, 10 μM, 48 h; read-out: Percent growth inhibition
Protocol: (§1) Compounds 1 and 2 were submitted to the National Cancer Institute NCI-60 Tumor Cell Screening Program (NCI number 800,700 and 800,701, respectively) for evaluation against the 60 cell line NCI panel at a single dose of 10 μM. […] Leukemia and breast cancer cell lines comprised the only cancer groups that were uniformly sensitive to both 1 and 2, with the greatest sensitivity seen in the leukemia SR cell line.
(§2) Compounds 1 and 2 were submitted to the NCI for growth inhibition screening against its panel of 60 cancer cell lines. The NCI screening protocol has extensively been described [[53], [54], [55], [56]]. Briefly, cancerous cell lines were grown in RPMI 1640 medium containing 5% fetal bovine serum and 2 mM L-glutamine. Depending on the doubling time of each cell line, 5000–40,000 cells were seeded in 96-well plates for 24 h. Cells were then treated with compounds 1 or 2 at a concentration of 10 μM and incubated for 48 h at 37 °C in a humidified atmosphere containing 5% CO2. The cells were then fixed and stained with sulforhodamine B (SRB) to determine their viability. The data were analyzed using a program called COMPARE to determine the percent growth inhibition of each compound.

SK-MEL-5 = details: Homo sapiens; Melanoma SK-MEL-5, 10 μM, 48 h; read-out: Percent growth inhibition
Protocol: as §1, §2

ACHN = details: Homo sapiens, Renal ACHN, 48 h, read-out: Percent growth inhibition
Protocol: as §1, §2

786-0 = details: Homo sapiens; Renal 786-0, 10 μM, 48 h; read-out: Percent growth inhibition
Protocol: as §1, §2

OVCAR-4 = details: Homo sapiens; Ovarian OVCAR-4, 10 μM, 48 h; read-out: Percent growth inhibition
Protocol: as §1, §2

SNB-19 = details: Homo sapiens; CNS SNB-19, 10 μM, 48 h; read-out: Percent growth inhibition
Protocol: as §1, §2

K-562 = details: Homo sapiens, K562; Leukemia K-562, 10 μM, 48 h; read-out: Percent growth inhibition
Protocol: as §1, §2

HT29 = details: Homo sapiens, HT-29, 48 h, Colon HT29, 10 μM, read-out: Percent growth inhibition
Protocol: as §1, §2

EKVX = details: Homo sapiens, Non-Small Cell Lung EKVX, 48 h, read-out: Percent growth inhibition
Protocol: as §1, §2

CAKI-1 = details: Homo sapiens; Renal CAKI-1, 10 μM, 48 h; read-out: Percent growth inhibition
Protocol: as §1, §2

NCI-H322M = details: Homo sapiens, Non-Small Cell Lung NCI-H322M, 48 h, read-out: Percent growth inhibition
Protocol: as §1, §2

NCI/ADR-RES = details: Homo sapiens, Ovarian NCI/ADR-RES, 48 h, read-out: Percent growth inhibition
Protocol: as §1, §2

MDA-MB-435 = details: Homo sapiens; Melanoma MDA-MB-435, 10 μM, 48 h; read-out: Percent growth inhibition
Protocol: as §1, §2

SF-268 = details: Homo sapiens; CNS SF-268, 10 μM, 48 h; read-out: Percent growth inhibition
Protocol: as §1, §2

KM12 = details: Homo sapiens; Colon KM12, 10 μM, 48 h; read-out: Percent growth inhibition
Protocol: as §1, §2

SNB-75 = details: Homo sapiens; CNS SNB-75, 10 μM, 48 h; read-out: Percent growth inhibition
Protocol: as §1, §2

SK-MEL-28 = details: Homo sapiens; Melanoma SK-MEL-28, 10 μM, 48 h; read-out: Percent growth inhibition
Protocol: as §1, §2

UO-31 = details: Homo sapiens; Renal UO-31, 10 μM, 48 h; read-out: Percent growth inhibition
Protocol: as §1, §2

TK-10 = details: Homo sapiens; Renal TK-10, 10 μM, 48 h; read-out: Percent growth inhibition
Protocol: as §1, §2

HCC-2998 = details: Homo sapiens; Colon HCC-2998, 10 μM, 48 h; read-out: Percent growth inhibition
Protocol: as §1, §2

NCI-H226 = details: Homo sapiens, NCI-H226, 48 h, Non-Small Cell Lung NCI-H226, 10 μM, read-out: Percent growth inhibition
Protocol: as §1, §2

A549 = details: Homo sapiens; Non-Small Cell Lung A549, 10 μM, 48 h; read-out: Percent growth inhibition
Protocol: as §1, §2

NCI-H460 = details: Homo sapiens; Non-Small Cell Lung NCI-H460, 10 μM, 48 h; read-out: Percent growth inhibition
Protocol: as §1, §2

LOXIMVI = details: Homo sapiens, LOX IMVI, Melanoma LOXIMVI, 48 h, read-out: Percent growth inhibition
Protocol: as §1, §2

OVCAR-8 = details: Homo sapiens; Ovarian OVCAR-8, 10 μM, 48 h; read-out: Percent growth inhibition
Protocol: as §1, §2

BT-549 = details: Homo sapiens; Breast BT-549, 10 μM, 48 h; read-out: Percent growth inhibition
Protocol: as §1, §2

HOP-92 = details: Homo sapiens; Non-Small Cell Lung HOP-92, 10 μM, 48 h; read-out: Percent growth inhibition
Protocol: as §1, §2

RPMI-8226 = details: Homo sapiens; Leukemia RPMI-8226, 10 μM, 48 h; read-out: Percent growth inhibition
Protocol: as §1, §2

OVCAR-5 = details: Homo sapiens; Ovarian OVCAR-5, 10 μM, 48 h; read-out: Percent growth inhibition
Protocol: as §1, §2

Structure (SMILES)	inhibition at 10 µM (SF-295)	inhibition at 10 µM (SK-MEL-5)	inhibition at 10 µM (ACHN)	inhibition at 10 µM (786-0)	inhibition at 10 µM (OVCAR-4)	inhibition at 10 µM (SNB-19)	inhibition at 10 µM (K-562)	inhibition at 10 µM (HT29)	inhibition at 10 µM (EKVX)	inhibition at 10 µM (CAKI-1)	inhibition at 10 µM (NCI-H322M)	inhibition at 10 µM (NCI/ADR-RES)	inhibition at 10 µM (MDA-MB-435)	inhibition at 10 µM (SF-268)	inhibition at 10 µM (KM12)	inhibition at 10 µM (SNB-75)	inhibition at 10 µM (SK-MEL-28)	inhibition at 10 µM (UO-31)	inhibition at 10 µM (TK-10)	inhibition at 10 µM (HCC-2998)	also measured
CCn1cc(Nc2ncc3nnn(-c4ccc(C(=O)OC)cc4)c3n2)cn1 [Compound 1, Methyl 4-(5-((1-ethyl-1H-pyrazol-4-yl)amino)-3H-[1,2,3]triazolo[4,5-d]pyrimidin-3-yl)benzoate]	-2.41%	40.4%	1.27%	-6.68%	-12%	-9.34%	20.9%	47%	-4.33%	1.59%	-3.7%	-8.6%	9.99%	0.6%	7.33%	23.4%	-4.08%	10.4%	6.48%	-3.6%	inhibition at 10 µM (NCI-H226): 34.6%; inhibition at 10 µM (A549): 18.6%; inhibition at 10 µM (NCI-H460): 0.26%; inhibition at 10 µM (LOXIMVI): 34.9%; inhibition at 10 µM (OVCAR-8): 13.8%; inhibition at 10 µM (BT-549): 24.2%; inhibition at 10 µM (HOP-92): -8.76%; inhibition at 10 µM (RPMI-8226): 10.8%; inhibition at 10 µM (OVCAR-5): -5.43%
CCOc1ccc(-n2nnc3cnc(Nc4cnn(CC)c4)nc32)cc1 [Compound 2, 3-(4-Ethoxyphenyl)-N-(1-ethyl-1H-pyrazol-4-yl)-3H-[1,2,3]triazolo[4,5-d]pyrimidin-5-amine]	3.75%	26.4%	17.8%	21.7%	-14.7%	-0.19%	17.2%	39.7%	-5.32%	0.05%	-5.07%	1.5%	20%	12.7%	25.9%	44.6%	-2.62%	3.24%	1.47%	-2.67%	inhibition at 10 µM (NCI-H226): 46.3%; inhibition at 10 µM (A549): 25.2%; inhibition at 10 µM (NCI-H460): 5.14%; inhibition at 10 µM (LOXIMVI): 45.7%; inhibition at 10 µM (OVCAR-8): 21.2%; inhibition at 10 µM (BT-549): 16.2%; inhibition at 10 µM (HOP-92): -5.76%; inhibition at 10 µM (RPMI-8226): 17%; inhibition at 10 µM (OVCAR-5): -11.8%
